# Earlier results, collected in article PMC7288168, “Synthesis and Cytotoxic Activity of Chiral Sulfonamides Based on the 2-Azabicycloalkane Skeleton” (Molecules, 2020).
# Tested on: D425 cells
# Set-up: method as in von Bueren et al. [31]
# Details: known chemotherapeutics in D425 cells; ref von Bueren et al. [31]; cited from earlier work
compound,measurement,value
COc1cc([C@@H]2c3cc4c(cc3[C@@H](O[C@@H]3O[C@@H]5CO[C@@H](C)O[C@H]5[C@H](O)[C@H]3O)[C@H]3COC(=O)[C@H]23)OCO4)cc(OC)c1O [etoposide],LD50 D425,8 µM
